Series [1] deals with T1, P-gp (Homo sapiens, UniProt P08183). The series can be described thus: Rhodamine 123 efflux assay, HeL023 cells. The format is cell-based. The arrangement: nearly all (100±1%) the cells expressing high level of functional P-gp; endogenous in cells; host or cells: HeL023 human erythroleukemia cells. The settings on record: for inhibition of P-gp activity (in words): Rh123 efflux; for % of Rh123 negative cells: antagonist 10 μM, cells expressing P-gp activity. How it is done:
(§1) 5×10^5 cells from each subline were loaded with 50 ng/ml of rhodamine 123 for 30 minutes at 37° C. in medium. The cells were washed and resuspended in dye-staining agent free medium for 3 hours at 37° C. to allow rhodamine 123 efflux. The cells were then washed twice and the fluorescence of intracellular rhodamine 123 were analysed with Flow cytometer (residual fluorescence FRES). The fluorescence was compared with loaded cells maintained at 4° C. to prevent drug export (maximal fluorescence FMAX). […] Cells from each subline that were not being exposed to rhodamine 123 were used as negative controls.
(§2) Rhodamine 123 (Rh 123) retention, a P-gp functional assay, was studied in all cell lines. This assay was performed by incubating cells with Rh 123 and determining Rh 123 accumulation by measuring its fluorescence. The maximum load of Rh 123 (FMAX) was quantified at the end of treatment harvesting the cells and storing them at 4° C. to prevent any active Rh123 efflux. The P-gp drug efflux was allowed incubating Rh 123-loaded cells in fresh new medium Rh 123-free for 3 hours at 37° C. After this incubation, residual fluorescence (FRES) was measured and compared to FMAx.

Series [2] concerns human colon carcinoma HT29 cell line. Briefly: MTT growth inhibitory assay, HT29. The series is classed as cell-based. The settings on record: for IC50: Homo sapiens, HT-29, HT29 cells, read-out: IC50 of anti-neoplastic agent used jointly with A3 antagonist; for HT29 more refractory than the A375 cell line: ratio of IC50 HT29 vs A375. An excerpt: (§3) The cells are sub-cultured twice a week.

Series [3] has as its system human lung carcinoma SKMES cell line. The series can be described thus: MTT growth inhibitory assay, SKMES. The settings on record: SKMES cells, read-out: IC50 of anti-neoplastic agent used jointly with A3 antagonist. The series is classed as cell-based.
Text: as §3

For another series, the system named is A375 cells. Briefly: Metabolic (MEK, ERK, p38MAPK) inhibitors on G2/M arrest and apoptosis, flow cytometry. The format is cell-based, human.
The test system of the next series is A375 melanoma cells. Briefly: Colony formation assay. The series is classed as cell-based, human. The settings on record: for colony formation: 7 days. The protocol: FIG. 2 illustrates colony formation assay of A375 cells. Cells were treated with different drugs and colonies were counted after 7 days. The values represent the mean±SEM of four independent experiments. D=DMSO (control); T=paclitaxel, 0.75 ng/ml; M=MRE 3008F20, 10 μM; C═CI-IB-MECA, 10 μM; TM=paclitaxel plus MRE 3008F20; TC=paclitaxel plus CI-IB-MECA treated cells. *P<0.01 TM versus T. Analysis was by ANOVA followed by Dunnett's test.;
Control plates received the same volume of DMSO alone. After 7 days of growth at 37° C. in humidified atmosphere containing 5% CO2, the cells were fixed with absolute methanol for 5′ and stained with 1/10 Giemsa/phosphate-buffered saline (PBS) staining solution for 10 minutes. Staining solution was removed and colonies of greater than 30 cells were scored as survivors. For each treatment, six individual wells were scored.

The target in series [4] is T1, P-gp. Briefly: Rhodamine 123 efflux assay, A375 cells. The format is cell-based. Further details: endogenous in cells. The protocol: as §1, §2

Each structure is given as a SMILES string. ≈ marks a conversion by molar mass, not a printed value. Entries after “also recorded” stand apart in the source; their conditions may differ. Counter-ions that a name gives are not always drawn. Like-named read-outs stand apart in the source and are kept apart here.

T1 sequence (P08183 whole entry): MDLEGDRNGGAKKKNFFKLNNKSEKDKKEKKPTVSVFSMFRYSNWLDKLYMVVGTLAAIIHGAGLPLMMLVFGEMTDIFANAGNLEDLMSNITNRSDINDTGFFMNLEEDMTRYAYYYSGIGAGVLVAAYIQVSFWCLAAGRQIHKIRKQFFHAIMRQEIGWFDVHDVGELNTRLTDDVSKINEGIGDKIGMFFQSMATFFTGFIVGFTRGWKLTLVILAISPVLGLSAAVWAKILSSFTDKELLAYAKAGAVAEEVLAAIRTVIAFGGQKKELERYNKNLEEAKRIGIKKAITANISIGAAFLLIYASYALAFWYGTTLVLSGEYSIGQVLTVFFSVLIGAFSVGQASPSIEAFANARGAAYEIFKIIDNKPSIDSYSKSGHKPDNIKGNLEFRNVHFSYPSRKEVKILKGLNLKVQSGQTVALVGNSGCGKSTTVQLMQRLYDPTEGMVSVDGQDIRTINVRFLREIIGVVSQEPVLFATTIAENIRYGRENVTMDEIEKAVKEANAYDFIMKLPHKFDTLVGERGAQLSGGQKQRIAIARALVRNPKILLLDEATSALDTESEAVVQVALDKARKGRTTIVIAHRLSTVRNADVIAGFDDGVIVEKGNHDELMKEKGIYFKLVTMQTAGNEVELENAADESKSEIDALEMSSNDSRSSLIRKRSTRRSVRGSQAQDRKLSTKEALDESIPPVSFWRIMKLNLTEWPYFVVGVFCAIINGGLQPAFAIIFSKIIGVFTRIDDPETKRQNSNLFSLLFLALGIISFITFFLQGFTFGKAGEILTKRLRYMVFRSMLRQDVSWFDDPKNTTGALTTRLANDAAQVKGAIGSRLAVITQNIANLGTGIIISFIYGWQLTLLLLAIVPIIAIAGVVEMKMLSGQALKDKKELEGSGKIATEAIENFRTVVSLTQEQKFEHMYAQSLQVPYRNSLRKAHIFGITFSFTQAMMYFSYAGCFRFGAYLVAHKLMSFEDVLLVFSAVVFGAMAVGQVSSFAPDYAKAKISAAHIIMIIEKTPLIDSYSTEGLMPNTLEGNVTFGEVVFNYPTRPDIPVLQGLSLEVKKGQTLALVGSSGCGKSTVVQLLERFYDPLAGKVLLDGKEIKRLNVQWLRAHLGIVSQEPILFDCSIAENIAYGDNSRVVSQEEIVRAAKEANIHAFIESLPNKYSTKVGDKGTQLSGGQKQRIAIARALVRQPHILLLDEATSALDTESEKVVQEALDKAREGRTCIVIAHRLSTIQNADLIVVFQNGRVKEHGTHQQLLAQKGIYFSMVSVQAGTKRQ

With `CCN(CC)c1ccc(NC(=O)Nc2nc3nn(C)cc3c3nc(-c4ccco4)nn23)cc1` [IL-10, N-1-(4-diethylamino-phenyl)-N′-5-[8-methyl-2-(2-furyl)-pyrazolo [4,3-e]1,2,4-triazolo[1,5-c]pyrimidine]-urea], at P-gp [1], the “inhibition of P-gp activity (in words)” value is reported as “strong inhibitors of P-gp activity” and the “% of Rh123 negative cells” value turned out to be 0.4 ± 0.2%.
Regarding `Nc1nc2ccc(Cl)cc2c2nc(-c3ccco3)nn12` [CGS 15943, 5-amino-9-chloro-2-(furyl) 1,2,4-triazolo[1,5-c]quinazoline], the “inhibition of P-gp activity (in words)” value at P-gp [1] was “much lower effect on P-gp activity”.
Still for that read-out and setting: then `CCCn1cc2c(nc(NC(=O)Nc3ccccc3)n3nc(-c4ccco4)nc23)n1` [MRE 3055F20, 5-N-(4-phenylcarbamoyl)amino-8-propyl-2 (2furyl)-pyrazolo[4,3e]-1,2,4triazolo-[1,5c]pyrimidine], with “strong inhibitors of P-gp activity”.
Consider `CCCCn1cc2c(nc(NC(=O)Nc3ccccc3)n3nc(-c4ccco4)nc23)n1` [MRE 3062F20, 5-N-(4-phenyl-carbamoyl)amino-8-butyl-2(2furyl)-pyrazolo-[4,3e]-1,2,4triazolo[1,5-c]pyrimidine], for which, on P-gp [1], the “inhibition of P-gp activity (in words)” value is reported as “strong inhibitors of P-gp activity” and the “% of Rh123 negative cells” value was 1.0 ± 0.2%.
Consider `CCc1c2c(nc3ccc(OC(=O)N4CCC(N5CCCCC5)CC4)cc13)-c1cc3c(c(=O)n1C2)COC(=O)[C@]3(O)CC` [irinotecan HCL], for which the IC50 in series [2] (with IL-10 0.5 μg/ml) came out at 0.77 µg/mL; in series [2] (with IL-11 0.5 μg/ml), 0.85 µg/mL; in series [2] (with MRE3008F20 1 μg/ml), 0.53 µg/mL; in series [3] (with IL-10 0.5 μg/ml) it was 0.67 µg/mL; in series [3] (with IL-11 0.5 μg/ml), 0.061 µg/mL; in series [3] (with MRE3008F20 1 μg/ml) it was 0.57 µg/mL.
As for `O=C1c2c(O)ccc(O)c2C(=O)c2c(NCCNCCO)ccc(NCCNCCO)c21` [mitoxantrone], the “HT29 more refractory than the A375 cell line” value in series [2] was “approximately 30 fold”.
As to `C[S+]([O-])c1ccc(-c2nc(-c3ccncc3)c(-c3ccc(F)cc3)[nH]2)cc1` (centres unmarked) [SB203580], in the series on A375 cells, the “G2/M accumulation rate of inhibitor plus paclitaxel or vindesine respect to paclitaxel or vindesine alone (in words)” value is recorded as “did not alter”.
For `CNC(=O)[C@H]1O[C@@H](n2cnc3c(NCc4cccc(I)c4)nc(Cl)nc32)[C@H](O)[C@@H]1O` [CI-IB-MECA], the colony formation increased result in the series with A375 melanoma cells (CI-IB-MECA 10 μM alone vs DMSO control) is given as “about 30%”; in the series on A375 melanoma cells (CI-IB-MECA 10 μM combined with paclitaxel 0.75 ng/ml vs paclitaxel alone), 32%. In addition, the colony formation is given as 85 % of control with A375 melanoma cells (CI-IB-MECA 10 μM or MRE 3008F20 10 μM combined with paclitaxel 0.75 ng/ml) and 130 % of control in the series on A375 melanoma cells (agent alone (CI-IB-MECA 10 μM; paclitaxel 0.75 ng/ml; MRE 3008F20 10 μM)).
Consider `N#CC(=C(/N)Sc1ccccc1N)/C(C#N)=C(\N)Sc1ccccc1N` [U0126], for which the “G2/M accumulation rate of inhibitor plus paclitaxel or vindesine respect to paclitaxel or vindesine alone (in words)” value in the series on A375 cells (A375, PD98059 20 μM, U0126 30 μM, SB203580 1 μM) was “did not alter”. For the same molecule, on P-gp [4] (U0126 30 μM for 30 minutes, then MRE3008F20 10 μM), the “effect on MRE 3008F20 blockade of P-gp (in words)” value is on record as “failed to prevent”.
With `Nc1nc(NCCc2ccc(O)cc2)nc2nc(-c3ccco3)nn12` [ZM 241385, 4-(2-[7-amino-2-(2-furyl)-[1,2,4]triazolo[2,3-a][1,3,5]triazin-5-ylamino]ethyl)phenol], the “inhibition of P-gp activity (in words)” value at P-gp [1] is given as “much lower effect on P-gp activity”.
Turning to `CC[C@]1(O)C[C@@H]2CN(CCc3c([nH]c4ccccc34)[C@@](C(=O)OC)(c3cc4c(cc3OC)N(C)[C@H]3[C@@](O)(C(=O)OC)[C@H](OC(C)=O)[C@]5(CC)C=CCN6CC[C@]43[C@@H]65)C2)C1` [vinblastine], the IC50 in series [3] (with IL-10 0.5 μg/ml) was 0.0011 µg/mL (≈ 0.00136 µM); in series [3] (with IL-11 0.5 μg/ml), 0.00094 µg/mL (≈ 0.00116 µM); in series [3] (with MRE3008F20 1 μg/ml), 0.0013 µg/mL (≈ 0.0016 µM).
As for `Cc1ccc(NC(=O)Nc2nc3nn(C)cc3c3nc(-c4ccco4)nn23)cc1` [MRE 3046F20, 5-N-(4-methylphenyl-carbamoyl)amino-8-methyl-2 (2-furyl)-pyrazolo-[4,3e]-1,2,4-triazolo[1,5-c]pyrimidine], the “inhibition of P-gp activity (in words)” value against P-gp [1] was “strong inhibitors of P-gp activity”.
Consider `COc1cccc2c1C(=O)c1c(O)c3c(c(O)c1C2=O)C[C@@](O)(C(=O)CO)C[C@@H]3O[C@H]1C[C@H](N)[C@H](O)[C@H](C)O1` [doxorubicin], for which the IC50 turned out to be 0.31 µg/mL (≈ 0.57 µM) in series [2] (with IL-10 0.5 μg/ml), 0.38 µg/mL (≈ 0.699 µM) in series [2] (with IL-11 0.5 μg/ml) and 0.28 µg/mL (≈ 0.515 µM) in series [2] (with MRE3008F20 1 μg/ml). In series [2], the “HT29 more refractory than the A375 cell line” value is reported as “approximately 30 fold”.
On to `CCCn1cc2c(nc(NC(=O)Nc3ccc(OC)cc3)n3nc(-c4ccco4)nc23)n1` [MRE3008F20, 5-[[(4-Methoxyphenyl)amino]carbonyl]amino-8-propyl-2-(2-furyl)-pyrazolo[4,3-e]1,2,4-triazolo[1,5-c]pyrimidine], for which, on P-gp [1], the “inhibition of P-gp activity (in words)” value is “near total P-gp inhibition; also recorded: strong inhibitors of P-gp activity” and the “% of Rh123 negative cells” value is recorded as 0.5 ± 0.3%. For the same molecule, the “P-gp mediated Rh123 transport (in words)” value at P-gp [4] (MRE3008F20 10 μM) is “completely blockade of P-gp mediated Rh123 transport”.

(Values after patent US20050119289A1 (priority 2002, published 2005).)
